The values below come from publication PMC6268995, “(E)-5-Styryl-1H-indole and (E)-6-Styrylquinoline Derivatives Serve as Probes for β-Amyloid Plaques” (Molecules, 2012).

In general, melting point refers to the temperature of the solid-liquid transition. Usually Ki stands for the dissociation constant of the complex between target and ligand, obtained from inhibition or displacement. Low values mean higher affinity, high ones lower affinity. A word on the logD: it is the decadic logarithm of the distribution of all forms, ionised or not, between an organic phase and buffer at a given pH.

Entries after “also recorded” stand apart in the source; their conditions may differ. Read-outs that look alike come from different tables or passages of the source.

One data set addresses T1, Aβ1–40 aggregates (Homo sapiens, UniProt P05067).
T1 construct: β-amyloid(1–40) were purchased from AnaSpec; purchased AnaSpec (San Jose, CA, USA)
Description: Competition binding assay on Aβ1–40 aggregates using [125I]TZDM as radio-ligand. The conditions noted are these: Aβ1–40 aggregates against [125I]TZDM; triplicate, mean ± SD. Here is the method: The lyophilized white powder of β-amyloid(1–40) were purchased from AnaSpec (San Jose, CA, USA). After reconstituted by adding basic buffer (1% NH4OH. 60–70 μL) to β-amyloid (1–40) (1 mg) aggregation of Aβ1–40 was carried out by gently dissolving Aβ1–40 (0.25 mg/mL) in a PBS buffer (pH 7.4). The solution was incubated at 37 °C for 72 h with gentle and constant shaking. Binding studies were carried out according to the procedure described previously with some modifications using [^125I]TZDM as the radiolabeled standard. […] The mixture was incubated at 37 °C for 2 h. […] Filters containing the bound ^125I ligand were counted in a γ-counter (WALLAC Wizard 1470, PerkinElmer Life Sciences, Waltham, MA, USA) with 75% counting efﬁciency. The IC50 values were determined using GraphPad Prism 5.0, and those for the inhibition constant (Ki) were calculated using the Cheng Prusoff equation: Ki = IC50/(1 + [L]/Kd).

Another data set has as its target Aβ plaques (Homo sapiens, UniProt P05067). Description: In vitro fluorescent staining of amyloid plaques in brain sections from transgenic mouse. Format: binding, transgenic model mouse (APP/PS1). The note with it: brain sections 8 µm, APP/PS1, 12 months, male; 1 µM. As for the experimental part: Parafﬁn-embedded brain sections of transgenic model mouse (8 µm, APP/PS1, 12 months, male) were used for the in vitro fluorescent staining of amyloid plaques. The brain sections were deparafﬁnized with xylene, ethanol and distilled water. After immersion in PBS (0.02 M, pH 7.4) for 30 min, the brain sections were incubated with 20% ethanol solution (1 µM) of compound 8 for 10 min. The localization of plaques was confirmed by staining with thioﬂavin-S on the adjacent sections. Finally, the sections were washed with 40% ethanol and PBS (0.02 M, pH 7.4). Fluorescent observation was performed by a Stereo Discovery V12 instrument (Zeiss, Oberkochen, Germany) equipped with a LP 505 filter set (excitation, 405 nm).

On the set-up of data set [1]: method as in PMID 12519062. The note with it: normal mice, cited from earlier work.
Data set [2] can be described thus: Partition coefficient determination (n-octanol/PBS). The class given is physicochemical. The conditions noted are these: n-octanol / PBS 0.02 M, pH 7.4. As for the experimental part: The determination of partition coefﬁcients of [^125I]8 and [^125I]17 was performed according to the procedure previously reported with some modifications. Ligand [^125I]8 or [^125I]17 (~5 μCi) was mixed with 3 mL each of n-octanol and PBS (0.02 M, pH 7.4) in a test tube. The test tube was vortexed for 5 min at room temperature, followed by centrifugation for 10 min at 3,000 rpm. Two weighed samples from the n-octanol (50 µL) and buffer layers (400 µL) were counted in a γ-counter. The partition coefﬁcient was expressed as the logarithm of the ratio of the counts per gram from n-octanol versus that of PBS. Samples from the n-octanol layer were repartitioned until consistent partition coefﬁcient values were obtained. The measurements were done in triplicate and repeated three times.

The nature of data set [3]: In vivo biodistribution in normal mice. Set-up: species or system KunMing normal mice. The note with it: iv injection. Here is the method:
In vivo biodistribution studies were performed in KunMing normal mice (female, average weight 18–22 g) and in accordance with the national laws related to the care and experiments on laboratory animal. A saline solution (100 µL) containing [^125I]8 or [^125I]17 (1 µCi) was injected directly into the tail vein of mice. The mice (n = 5 for each time point) were sacriﬁced at designated time points post-injection. The organs of interest were removed and weighed, and the radioactivity was counted with an automatic γ-counter (WALLAC Wizard 1470).

T1 sequence (P05067 672-711 limits assumed): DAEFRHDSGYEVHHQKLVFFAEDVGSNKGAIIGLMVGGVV
Chain of Aβ plaques (P05067 672-711 limits assumed): as above

`C(=C\c1ccc2[nH]ccc2c1)/c1ccccc1` [Compound 4, (E)-5-Styryl-1H-indole]: the melting point was 162 to 163 °C. The same compound yielded a Ki on Aβ1–40 aggregates of 25.1 ± 2.1 nM.

In turn, `Fc1ccc(/C=C/c2ccc3[nH]ccc3c2)cc1` [Compound 5, (E)-5-(4-Fluorostyryl)-1H-indole] returned an inhibition constant Ki on Aβ1–40 aggregates of 89.3 ± 2.6 nM.

Regarding `Clc1ccc(/C=C/c2ccc3[nH]ccc3c2)cc1` [Compound 6, (E)-5-(4-Chlorostyryl)-1H-indole], the inhibitory constant (Ki) at Aβ1–40 aggregates amounted to 51.5 ± 1 nM.

`Brc1ccc(/C=C/c2ccc3[nH]ccc3c2)cc1` [Compound 7, (E)-5-(4-Bromostyryl)-1H-indole] came in with a melting point of 215 to 216 °C. In addition, affinity at Aβ1–40 aggregates was put at a Ki of 16.3 ± 1.7 nM.

Compound `Ic1ccc(/C=C/c2ccc3[nH]ccc3c2)cc1` [Compound 8, (E)-5-(4-Iodostyryl)-1H-indole] yielded a melting point of 211 to 212 °C. The compound further registered a Ki at Aβ1–40 aggregates of 4.1 ± 0.2 nM. Besides, the “Fluorescent staining of Aβ plaques” value at Aβ plaques is given as “specific binding to Aβplaques; also recorded: clearly stained Aβ plaques”.

For the compound `COc1ccc(/C=C/c2ccc3[nH]ccc3c2)cc1` [Compound 10, (E)-5-(4-Methoxystyryl)-1H-indole], the inhibitory constant (Ki) at Aβ1–40 aggregates was 32.4 ± 1.9 nM.

`Fc1ccc(/C=C/c2ccc3ncccc3c2)cc1` [Compound 14, (E)-6-(4-Fluorostyryl)quinoline]: at Aβ1–40 aggregates, the Ki came out at 270.4 ± 1.5 nM.

For `Clc1ccc(/C=C/c2ccc3ncccc3c2)cc1` [Compound 15, (E)-6-(4-Chlorostyryl)quinoline], the Ki at Aβ1–40 aggregates amounted to 45 ± 1.3 nM.

At Aβ1–40 aggregates, `Brc1ccc(/C=C/c2ccc3ncccc3c2)cc1` [Compound 16, (E)-6-(4-Bromostyryl)quinoline] came in with a Ki of 23.5 ± 1.3 nM.

With `Ic1ccc(/C=C/c2ccc3ncccc3c2)cc1` [Compound 17, (E)-6-(4-Iodostyryl)quinoline], the melting point is 173 to 174 °C. The affinity at Aβ1–40 aggregates, expressed as Ki, was 8.6 ± 1.2 nM.

In the case of `Cc1ccc(/C=C/c2ccc3ncccc3c2)cc1` [Compound 18, (E)-6-(4-Methylstyryl)quinoline], the affinity at Aβ1–40 aggregates corresponds to a Ki of 288.4 ± 1.3 nM.

In the case of `CN(C)c1ccc(-c2cn3cc([123I])ccc3n2)cc1` [[^123I]IMPY], the brain uptake is 2.88 % ID/organ in data set [1] (2 min postinjection ref 16) and 0.21 % ID/organ in data set [1] (60 min postinjection ref 16). Moreover, the brain2min/brain60min ratio in data set [1] (from literature values ref 16) is given as 13.7.

As to `[125I]c1ccc(/C=C/c2ccc3ncccc3c2)cc1` [[^125I]17], in data set [2], the logD turned out to be 2.73. Moreover, in data set [3] (2 min), the “Biodistribution Blood” value worked out at 11.39 ± 1.56 % ID/g, the “Biodistribution Brain” value amounted to 2.05 ± 0.25 % ID/g, the “Biodistribution Heart” value was determined as 7.70 ± 0.86 % ID/g and the “Biodistribution Kidney” value is given as 15.01 ± 1.56 % ID/g. Further, in data set [3] (2 min), the “Biodistribution Liver” value came to 22.45 ± 1.79 % ID/g, the “Biodistribution Lung” value is given as 13.56 ± 1.71 % ID/g, the “Biodistribution Muscle” value turned out to be 2.78 ± 0.42 % ID/g and the “Biodistribution Spleen” value was found to be 5.88 ± 0.30 % ID/g. Besides, the “Biodistribution Stomach” value in data set [3] (2 min) is given as 4.05 ± 0.09 % ID/organ. Also, in data set [3] (15 min), the “Biodistribution Blood” value is recorded as 6.31 ± 0.51 % ID/g, the “Biodistribution Brain” value came to 1.18 ± 0.17 % ID/g, the “Biodistribution Heart” value is 3.80 ± 0.12 % ID/g and the “Biodistribution Kidney” value was 7.47 ± 1.01 % ID/g. Besides, in data set [3] (15 min), the “Biodistribution Liver” value worked out at 9.95 ± 0.18 % ID/g, the “Biodistribution Lung” value is reported as 6.42 ± 0.47 % ID/g, the “Biodistribution Muscle” value turned out to be 1.68 ± 0.20 % ID/g and the “Biodistribution Spleen” value was found to be 5.91 ± 0.58 % ID/g. Besides, in data set [3] (15 min), the “Biodistribution Stomach” value came out at 15.84 ± 0.78 % ID/organ. In addition, in data set [3] (30 min), the “Biodistribution Blood” value was determined as 5.80 ± 0.37 % ID/g, the “Biodistribution Brain” value amounted to 0.93 ± 0.13 % ID/g, the “Biodistribution Heart” value amounted to 3.21 ± 0.11 % ID/g and the “Biodistribution Kidney” value was determined as 6.57 ± 0.50 % ID/g. In addition, in data set [3] (30 min), the “Biodistribution Liver” value was 9.12 ± 0.53 % ID/g, the “Biodistribution Lung” value is on record as 5.64 ± 0.41 % ID/g, the “Biodistribution Muscle” value amounted to 2.30 ± 0.32 % ID/g and the “Biodistribution Spleen” value was 4.66 ± 0.52 % ID/g. In data set [3] (30 min), the “Biodistribution Stomach” value is listed as 8.11 ± 1.21 % ID/organ. In data set [3] (60 min), the “Biodistribution Blood” value came to 3.86 ± 0.74 % ID/g, the “Biodistribution Brain” value is listed as 0.55 ± 0.11 % ID/g, the “Biodistribution Heart” value came to 2.55 ± 0.21 % ID/g and the “Biodistribution Kidney” value was 4.72 ± 0.69 % ID/g. In addition, in data set [3] (60 min), the “Biodistribution Liver” value is listed as 6.97 ± 0.28 % ID/g, the “Biodistribution Lung” value was 4.55 ± 0.49 % ID/g, the “Biodistribution Muscle” value was 1.40 ± 0.34 % ID/g and the “Biodistribution Spleen” value came out at 4.71 ± 0.97 % ID/g. Further, the “Biodistribution Stomach” value in data set [3] (60 min) amounted to 6.75 ± 0.43 % ID/organ. Besides, in data set [3] (120 min), the “Biodistribution Blood” value amounted to 1.97 ± 0.35 % ID/g, the “Biodistribution Brain” value stood at 0.26 ± 0.03 % ID/g, the “Biodistribution Heart” value amounted to 1.33 ± 0.06 % ID/g and the “Biodistribution Kidney” value is 2.20 ± 0.34 % ID/g. In data set [3] (120 min), the “Biodistribution Liver” value amounted to 3.93 ± 0.46 % ID/g, the “Biodistribution Lung” value was 2.01 ± 0.18 % ID/g, the “Biodistribution Muscle” value is reported as 0.72 ± 0.21 % ID/g and the “Biodistribution Spleen” value is reported as 2.25 ± 0.36 % ID/g. Also, the “Biodistribution Stomach” value in data set [3] (120 min) is reported as 11.12 ± 2.48 % ID/organ. In data set [3] (240 min), the “Biodistribution Blood” value amounted to 1.38 ± 0.24 % ID/g, the “Biodistribution Brain” value is recorded as 0.14 ± 0.02 % ID/g, the “Biodistribution Heart” value is on record as 0.80 ± 0.19 % ID/g and the “Biodistribution Kidney” value turned out to be 1.64 ± 0.23 % ID/g. Besides, in data set [3] (240 min), the “Biodistribution Liver” value is reported as 2.96 ± 0.28 % ID/g, the “Biodistribution Lung” value was 1.43 ± 0.28 % ID/g, the “Biodistribution Muscle” value was determined as 0.61 ± 0.08 % ID/g and the “Biodistribution Spleen” value was 1.59 ± 0.17 % ID/g. Also, the “Biodistribution Stomach” value in data set [3] (240 min) is 7.03 ± 1.51 % ID/organ.

The compound “(E)-5-(4-Methoxystyryl)-1H-indole [Compound 9]” yielded a Ki at Aβ1–40 aggregates of 15.8 ± 1.5 nM.
